Measurements from the NIST ThermoML archive (doi:10.1021/je4009238).

Columns and labels:
[1] = refractive index (Na D-line) (dimensionless); xn = mol fraction of the nth substance listed; conditions: 101 kPa, Liquid
[2] = xn = mol fraction of the nth substance listed; conditions: 101 kPa, Liquid

CCCCCCCC[n+]1ccn(C)c1.[Cl-] [1-methyl-3-octylimidazolium chloride] + CN(C)C=O
Conditions	mass density, [2] [kg/m3]	refractive index, [1]	viscosity, [2] [mPa·s]
288.15 K, x1 = 0.0306	962.61	1.4392	1.617
288.15 K, x1 = 0.0647	970.04	1.44535	2.007
288.15 K, x1 = 0.1021	976.96	1.4504	2.763
288.15 K, x1 = 0.1457	983.52	1.45598	4.132
288.15 K, x1 = 0.1939	989.54	1.46074	5.958
288.15 K, x1 = 0.2496	995.13	1.46531	8.425
288.15 K, x1 = 0.3143	1000.4	1.46967	13.28
288.15 K, x1 = 0.39	1005.26	1.47407	20.46
288.15 K, x1 = 0.4809	1009.79	1.47791	34.23
288.15 K, x1 = 0.5908	1013.76	1.48169	60.63
288.15 K, x1 = 0.7259	1017.15	1.48534	122.33
288.15 K, x1 = 1	1022.06	1.49008	–
298.15 K, x1 = 0.0306	953.41	1.43459	1.348
298.15 K, x1 = 0.0647	961.21	1.44113	1.629
298.15 K, x1 = 0.1021	968.34	1.44613	2.262
298.15 K, x1 = 0.1457	975.24	1.45203	3.234
298.15 K, x1 = 0.1939	981.46	1.45641	4.582
298.15 K, x1 = 0.2496	987.32	1.46173	6.215
298.15 K, x1 = 0.3143	992.89	1.46588	9.498
298.15 K, x1 = 0.39	997.98	1.47066	14.03
298.15 K, x1 = 0.4809	1002.82	1.47429	22.18
298.15 K, x1 = 0.5908	1006.97	1.47835	37.33
298.15 K, x1 = 0.7259	1010.6	1.48212	69.31
298.15 K, x1 = 1	1015.97	1.48709	–
308.15 K, x1 = 0.0306	944.19	1.43007	1.172
308.15 K, x1 = 0.0647	952.27	1.4361	1.448
308.15 K, x1 = 0.1021	959.68	1.44189	1.909
308.15 K, x1 = 0.1457	966.87	1.44766	2.615
308.15 K, x1 = 0.1939	973.37	1.45241	3.636
308.15 K, x1 = 0.2496	979.5	1.45731	4.753
308.15 K, x1 = 0.3143	985.36	1.46212	7.07
308.15 K, x1 = 0.39	990.69	1.46672	10.12
308.15 K, x1 = 0.4809	995.8	1.47089	15.15
308.15 K, x1 = 0.5908	1000.19	1.47504	24.36
308.15 K, x1 = 0.7259	1004.44	1.47897	43.04
308.15 K, x1 = 1	1009.8	1.48413	155.03
318.15 K, x1 = 0.0306	934.98	1.42562	1.013
318.15 K, x1 = 0.0647	943.27	1.43143	1.289
318.15 K, x1 = 0.1021	951.06	1.438	1.661
318.15 K, x1 = 0.1457	958.48	1.44342	2.182
318.15 K, x1 = 0.1939	965.3	1.44849	2.97
318.15 K, x1 = 0.2496	971.71	1.45347	3.753
318.15 K, x1 = 0.3143	977.79	1.4586	5.427
318.15 K, x1 = 0.39	983.45	1.46306	7.536
318.15 K, x1 = 0.4809	988.76	1.46765	10.77
318.15 K, x1 = 0.5908	993.39	1.47179	16.68
318.15 K, x1 = 0.7259	997.95	1.47589	28.25
318.15 K, x1 = 1	1003.62	1.48122	65.95
